Experimental findings from the supplement of paper PMC10307832 are described below.

Common to all, as to assay: relative viability (nuclei count vs DMSO), 5 days (fraction); higher = more cells survive
Compound in experiment [1]: CS(=O)(=O)c1ccc(C(=O)Nc2ccc(Cl)c(-c3ccccn3)c2)c(Cl)c1 [Vismodegib] + O=C(c1cc(Cc2n[nH]c(=O)c3ccccc23)ccc1F)N1CCN(C(=O)C2CC2)CC1 [Olaparib] (partner 8 µM)
The gist of the method:
(§1)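 A single step with final 0.05% Triton X-100, 1% formaldehyde and 1 ug/ml Hoechst fixed the cells and stained nuclei 5 days after treatment. Lung cancer cell lines in 1536-well plates had been treated by pin tool the day after seeding with one drug alone or a fixed anchor-drug dose plus five library-drug doses (not always all listed) in √10 steps, and nuclei were counted on 4× images. Relative viability is the ratio of nuclei in treated wells to nuclei in vehicle wells, taken as the median of duplicate plates.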

Compound in experiment [2]: CS(=O)(=O)c1ccc(C(=O)Nc2ccc(Cl)c(-c3ccccn3)c2)c(Cl)c1 [Vismodegib] + Cc1nc(Nc2ncc(C(=O)Nc3c(C)cccc3Cl)s2)cc(N2CCN(CCO)CC2)n1 [Dasatinib] (partner 0.075 µM)
The procedure, abridged: as §1

Compound in experiment [3]: CS(=O)(=O)c1ccc(C(=O)Nc2ccc(Cl)c(-c3ccccn3)c2)c(Cl)c1 [Vismodegib] + CC(C)C[C@H](NC(=O)[C@H](Cc1ccccc1)NC(=O)c1cnccn1)B(O)O [Bortezomib] (partner 0.002 µM)
The gist of the method:
as §1

Compound in experiment [4]: CS(=O)(=O)c1ccc(-c2cnc(N)c(C(=O)Nc3ccccc3)n2)cc1 [VE-821] + Nc1ncn([C@H]2C[C@H](O)[C@@H](CO)O2)c(=O)n1 [Decitabine] (partner 2 µM)
The gist of the method: as §1

For the cell line UMC-11, the relative viability is 0.416 in experiment [1] (first compound 0.08 µM); 0.361 in experiment [1] (first compound 0.253 µM); 0.376 in experiment [1] (first compound 0.8 µM); 0.473 in experiment [1] (first compound 2.53 µM); 0.373 in experiment [1] (first compound 8 µM); 0.434 in experiment [2] (first compound 0.08 µM). For the same cell line, the relative viability in experiment [2] (first compound 0.253 µM) turned out to be 0.471; in experiment [2] (first compound 0.8 µM), 0.423; in experiment [2] (first compound 2.53 µM), 0.444; in experiment [2] (first compound 8 µM) it was 0.418; in experiment [3] (first compound 0.08 µM) it was 0.593; in experiment [3] (first compound 0.253 µM) it was 0.665. In addition, the relative viability stood at 0.85 in experiment [3] (first compound 0.8 µM); 0.717 in experiment [3] (first compound 2.53 µM); 0.745 in experiment [3] (first compound 8 µM); 0.687 in experiment [4] (first compound 0.08 µM); 0.617 in experiment [4] (first compound 0.253 µM); 0.583 in experiment [4] (first compound 0.8 µM). Besides, the relative viability stood at 0.664 in experiment [4] (first compound 2.53 µM) and 0.479 in experiment [4] (first compound 8 µM).
